Experiment: Stability of 2 by UV-vis spectroscopy and variable temperature 1H NMR
Format: physicochemical
From the text: The bidentate ligands used were 2,2′-bipyridine, 1,10-phenanthroline, 3,4,7,8-tetramethyl-1,10-phenanthroline, and 4,7-diphenyl-1,10-phenanthroline. The complexes were synthesized by reacting (Bu4N)[OsNCl4] with the appropriate ligand in acetone or dichloromethane. Characterization of 1-4 and the crystal structure of 4 are reported in Example 4. Prior to carrying out cellular studies, the stability of 2, taken as a representative member of the family, in phosphate buffered saline (PBS) and DMEM cell culture media was established by UV-vis spectroscopy. […] The water-octanol coefficient (log P) for each compound was also determined.

In the case of [N]#[Os]1([Cl])([Cl])([Cl])[N]2C=CC=c3ccc4c(c32)[N]1C=CC=4 [Complex 2, OsN(1,10-phenanthroline)Cl3], the “stability in phosphate buffered saline (PBS) and DMEM cell culture media” value (UV-vis spectroscopy) is reported as “established” and the thermal stability (variable temperature 1H NMR spectroscopy) is reported as “demonstrated”.
